This note sets out measurements from patent US9776972B2, “Pyrazole derivatives as arginine methyltransferase inhibitors and uses thereof” (priority 2013, dated 2017).

pIC50: −log10 of the molar value.

The target in one assay is human PRMT3 (Homo sapiens, UniProt O60678). As to the kind of experiment: PRMT3 Biochemical Assay (3H-SAM Flashplate, peptide substrate). The following applies: single experiment or average of multiple experiments. The text has this:
S-adenosylmethionine (SAM), S-adenosylhomocysteine (SAH), bicine, Tween20, dimethylsulfoxide (DMSO), bovine skin gelatin (BSG), isopropyl-β-D-thiogalactopyranoside (IPTG), and Tris(2-carboxyethyl)phosphine hydrochloride solution (TCEP) were purchased from Sigma-Aldrich at the highest level of purity possible. ^3H-SAM was purchase from American Radiolabeled Chemicals with a specific activity of 80 Ci/mmol. 384-well streptavidin Flashplates were purchased from PerkinElmer.
Peptide containing the classic RMT substrate motif was synthesized with an N-terminal linker-affinity tag motif and a C-terminal amide cap by 21st Century Biochemicals. The peptide was purified by high-performance liquid chromatography (HPLC) to greater than 95% purity and confirmed by liquid chromatography mass spectrometry (LC-MS). The sequence was Biot-Ahx-[…]-amide (SEQ ID NO.:11).
Full-length human PRMT3 (NM_005788.3) isoform 1 transcript clone was amplified from an HEK 293 cDNA library and subcloned into pGEX-KG (GE Life Sciences). The resulting construct encodes an N-terminal GST tag and a thrombin cleavage sequence ([…] […] […] […]) (SEQ ID NO.: 12) fused directly to Cys 2 of PRMT3.
E. coli (BL21(DE3) Gold, Stratagene) made competent by the CaCl2 method were transformed with the PRMT3 construct and ampicillin selection. Protein over-expression was accomplished by growing the PRMT3 expressing E. coli clone and inducing expression with 0.3 mM IPTG at 16° C. The culture was grown for 12 hours, harvested by centrifugation, and stored at −80° C. for purification.
GST-tagged PRMT3 was eluted with 50 mM Tris, 2 mM glutathione, pH 7.1 and 50 mM Tris, 20 mM glutathione, pH 7.1. Pooled fractions were dialysed in 20 mM Tris, 50 mM NaCl, 5% glycerol, 1 mM EDTA, 1 mM DTT, pH7.5 (Buffer B) and applied to a Q Sepharose Fast Flow column. GST-tagged PRMT3 was eluted by 500 mM NaCl in buffer B. Pooled fractions were dialyzed in 25 mM phosphate buffer, 100 mM NaCl, 5% glycerol, 2 mM DTT, pH 6.8 (Buffer C) and loaded on to a ceramic hydroxyapatite column. GST-tagged PRMT3 eluted with 25-400 mM phosphate in buffer C. Protein was concentrated and buffer was exchanged to 20 mM Tris, 150 mM NaCl, 5% glycerol, 5 mM β-mercaptoethanol, pH7.8 by ultrafiltration. The purity of recovered protein was 70%.
General Procedure for PRMT3 Enzyme Assays on Peptide Substrates.
The assays were all performed in a buffer consisting of 20 mM Bicine (pH=7.6), 1 mM TCEP, 0.005% BSG, and 0.002% Tween 20, prepared on the day of use. Compounds in 100% DMSO (1 ul) were spotted into a polypropylene 384-well V-bottom plates (Greiner) using a Platemate Plus outfitted with a 384-channel head (Thermo Scientific). DMSO (1 ul) was added to Columns 11, 12, 23, 24, rows A-H for the maximum signal control and 1 ul of SAH, a known product and inhibitor of PRMT3, was added to columns 11, 12, 23, 24, rows I-P for the minimum signal control. A cocktail (40 ul) containing the PRMT3 enzyme was added by Multidrop Combi (Thermo-Fisher). The compounds were allowed to incubate with PRMT3 for 30 min at room temperature, then a cocktail (10 ul) containing SAM and peptide was added to initiate the reaction (final volume=51 ul). The final concentrations of the components were as follows: PRMT3 was 0.5 nM, ^3H-SAM was 100 nM, non-radiolabeled SAM was 1.8 uM, peptide was 330 nM, SAH in the minimum signal control wells was 1 mM, and the DMSO concentration was 2%. The assays were stopped by the addition of potassium chloride (10 ul) to a final concentration of 100 mM. 50 ul of the reaction in the 384-well polypropylene plate was then transferred to a 384-well Flashplate and the biotinylated peptides were allowed to bind to the streptavidin surface for at least 1 hour before being washed once with 0.1% Tween20 in a Biotek ELx405 plate washer. […]

Assay [1] concerns mono-methyl arginine in RKO cells. As to the kind of experiment: RKO Methylation Assay, In Cell Western (ICW) for mono-methyl arginine and DNA content. The format is cell-based. The following applies: Homo sapiens, RKO, 72 h, RKO cells, 72 hours, mono-methyl arginine, percent activation; single experiment or average of multiple experiments; read-out: EC30 (In Cell Western data, Numerical). The text has this: RKO adherent cells were purchased from ATCC (American Type Culture Collection), Manassas, Va., USA. DMEM/Glutamax medium, penicillin-streptomycin, heat inactivated fetal bovine serum, 0.05% trypsin and D-PBS were purchased from Life Technologies, Grand Island, N.Y., USA. Odyssey blocking buffer, 800CW goat anti-rabbit IgG (H+L) antibody, and Licor Odyssey infrared scanner were purchased from Licor Biosciences, Lincoln, Nebr., USA. Mono-methyl arginine antibody was purchased from Cell Signaling Technology, Danvers, Mass., USA. Methanol was purchased from VWR, Franklin, Mass., USA. 10% Tween 20 was purchased from KPL, Inc., Gaithersburg, Md., USA. DRAQ5 was purchased from Biostatus Limited, Leicestershire, UK.
RKO adherent cells were maintained in growth medium (DMEM/Glutamax medium supplemented with 10% v/v heat inactivated fetal bovine serum and 100 units/mL penicillin-streptomycin) and cultured at 37° C. under 5% CO2.
Cell Treatment, in Cell Western (ICW) for Detection of Mono-Methyl Arginine and DNA Content.
RKO cells were seeded in assay medium at a concentration of 20,000 cells per mL to a poly-D-lysine coated 384 well culture plate (BD Biosciences 356697) with 50 μL per well. Compound (100 nL) from a 96-well source plate was added directly to 384 well cell plate. Plates were incubated at 37° C., 5% CO2 for 72 hours. After three days of incubation, plates were brought to room temperature outside of the incubator for ten minutes and blotted on paper towels to remove cell media. 50 μL of ice cold 100% methanol was added directly to each well and incubated for 30 min at room temperature. After 30 min, plates were transferred to a Biotek EL406 plate washer and washed 2 times with 100 μL per well of wash buffer (1×PBS). Next 60 μL per well of Odyssey blocking buffer (Odyssey Buffer with 0.1% Tween 20 (v/v)) were added to each plate and incubated 1 hour at room temperature. Blocking buffer was removed and 20 μL per well of primary antibody was added (mono-methyl arginine diluted 1:200 in Odyssey buffer with 0.1% Tween 20 (v/v)) and plates were incubated overnight (16 hours) at 4° C. Plates were washed 5 times with 100 μL per well of wash buffer. Next 20 μL per well of secondary antibody was added (1:200 800CW goat anti-rabbit IgG (H+L) antibody, 1:1000 DRAQ5 (Biostatus limited) in Odyssey buffer with 0.1% Tween 20 (v/v)) and incubated for 1 hour at room temperature. The plates were washed 5 times with 100 μL per well wash buffer then 2 times with 100 μL per well of water. Plates were allowed to dry at room temperature then imaged on the Licor Odyssey machine which measures integrated intensity at 700 nm and 800 nm wavelengths. Both 700 and 800 channels were scanned.
First, the ratio for each well was determined by:
Each plate included fourteen control wells of DMSO only treatment (minimum activation) as well as fourteen control wells for maximum activation treated with 20 μM of a reference compound. The average of the ratio values for each control type was calculated and used to determine the percent activation for each test well in the plate. Reference compound was serially diluted three-fold in DMSO for a total of nine test concentrations, beginning at 20 μM. Percent activation was determined and EC30 curves were generated using triplicate wells per concentration of compound.

Chain of human PRMT3 (O60678 with tags, fused parts or gaps): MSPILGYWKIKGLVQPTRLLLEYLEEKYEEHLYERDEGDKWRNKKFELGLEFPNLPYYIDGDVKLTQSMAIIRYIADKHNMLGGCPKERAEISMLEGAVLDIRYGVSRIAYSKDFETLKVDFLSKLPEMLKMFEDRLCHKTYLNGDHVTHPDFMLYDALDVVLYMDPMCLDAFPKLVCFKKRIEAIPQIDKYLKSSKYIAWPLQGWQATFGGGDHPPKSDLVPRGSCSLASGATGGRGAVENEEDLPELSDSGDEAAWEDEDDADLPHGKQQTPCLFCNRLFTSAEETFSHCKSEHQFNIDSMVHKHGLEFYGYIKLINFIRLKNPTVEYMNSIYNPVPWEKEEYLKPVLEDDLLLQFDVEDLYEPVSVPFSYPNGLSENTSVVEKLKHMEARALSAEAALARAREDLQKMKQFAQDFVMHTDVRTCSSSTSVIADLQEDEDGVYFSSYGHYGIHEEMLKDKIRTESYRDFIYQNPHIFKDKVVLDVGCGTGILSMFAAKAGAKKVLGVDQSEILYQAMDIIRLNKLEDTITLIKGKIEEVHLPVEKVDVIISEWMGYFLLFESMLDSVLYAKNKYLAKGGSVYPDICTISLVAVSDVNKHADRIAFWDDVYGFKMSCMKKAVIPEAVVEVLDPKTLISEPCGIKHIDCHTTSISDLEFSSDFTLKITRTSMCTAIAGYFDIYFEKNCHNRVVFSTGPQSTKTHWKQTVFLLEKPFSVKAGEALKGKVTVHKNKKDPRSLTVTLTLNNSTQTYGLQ

For `CC(C)Cc1ccc(-c2n[nH]cc2CN(C)CCN)cc1` [Compound 165], the negative-log IC50 (pIC50) (in general, −log10 of the IC50, conventionally taken in molar units) against human PRMT3 was 5.76. In addition, in assay [1], the concentration for an effect of 30% (EC30) (usually the concentration at which the effect reaches the 30% level) is 660 nM.
